Values joined by “and” are separate entries in the source; they are usually repeats but may differ in a detail not shown here. Identical values can stand only once.
Tested on: 873145-292-R-J1-PDC complex spheroid viability
Experiment: Anticancer human tumor 873145-292-R-J1-PDC patient-derived renal clear cell carcinoma cell line growth inhibition [POLQ]
Conditions: for viability, T/C: stronger effect = lower value
Protocol: Multicellular complex tumor spheroid response to Polymerase (POL) inhibitors (novobiocin, ART-558, RP6685) in combination with a variety of drugs and investigational agents in selected tumor cell lines
The POL inhibitors (novobiocin, ART-558, and RP6685) were evaluated both individually and in combination with standard of care and investigational anticancer small molecules within a complex spheroid model of solid tumors. . Complex spheroids include a stromal component modeled by human endothelial cells (HUVEC) and fibroblasts modeled by human mesenchymal stem cells (MSCs). The concentration ranges selected for each drug and investigational agent were based upon clinically achievable concentrations if the clinical Cmax of the agent was known.
Compounds. The drugs and investigational agents: novobiocin (NSC847541), ART-558 (NSC835418), RP-6685 (NSC848927), peposertib (NSC802822), ceralasertib (NSC780249), elimusertib (NSC800525), camonsertib (NSC841442), AZD-1390 (NSC803789), olaparib (NSC753686), talazoparib (NSC767125), rucaparib (NSC756644), sotorasib (NSC818433), MRTX-1133 (NSC836407), SN-38 (NSC673596), topotecan (NSC609699), epotoside (NSC141540), doxorubicin (NSC123127), gemcitabine (NSC613327), 5-fluorouracil (NSC19893), paclitaxel (NSC125973), vemurafenib (NSC761431), MSA-2 (NSC828583), SN-011 (NSC837082), adavosertib (NSC754352), prexasertib (NSC758257), carboplatin (NSC241240) and oxaliplatin (NSC266046), were obtained from the National Cancer Institute (NCI) Developmental Therapeutics Program Chemical Repository (21). The FDA-approved anticancer drug set is available from the Developmental Therapeutics Program at https://dtp.cancer.gov/organization/dscb/obtaining/. […] The stock solutions were prepared in dimethyl sulfoxide (DMSO, Sigma-Aldrich, St. Louis, MO, cat. D2650), except for the platinum compounds which were prepared in saline (Quality Biological, Gaithersburg, MD, cat. 114-055-101), at 800-fold the tested concentration and stored at -70 degrees C prior to their use. All drugs and investigational agents were tested over a range starting from a high concentration at or near the clinical Cmax and decreasing in half-log increments. If the clinical Cmax for an agent had not been determined, the highest concentration tested was 10 microM, except for SN-38, which was tested at a high concentration of 1 microM.
Cell Culture. All cells were maintained in an incubator at 37 degrees C and 5% CO2 with 95% humidity. The PDC lines were cultured according to standard operating procedures established by the NCI PDMR (https://pdmr.cancer.gov). Table 3 of the manuscript, lists the cell lines along with the number of the three cell types plated to form the mct-spheroids and media for tumor cell growth. After thawing, all PDC lines, except 997537-175-T-J1-PDC and 415267-285-R-J2-PDC, were cultured in Matrigel-coated flasks prepared with a working solution of 1X Ham's F-12 nutrient mix, without supplementation (Thermo Fisher Scientific, cat. 11765054), 100 U/mL penicillin-streptomycin (Thermo Fisher Scientific, cat. 15140122), and 2.5% Matrigel (Corning Inc., Corning, NY, cat. 354248) for the first three passages. The two PDC lines 997537-175-T-J1-PDC and 415267-285-R-J2-PDC were cultured on uncoated flasks. The 857933-349-R-J2-PDC line was cultured in 6C/Colon 1B media containing advanced DMEM/F-12 (Thermo Fisher Scientific, cat. 12634028), 10 mM HEPES (Thermo Fisher Scientific, cat. 15630080), 1X GlutaMAX supplement (Thermo Fisher Scientific, cat. 35050061), 0.1 mg/mL primocin (InvivoGen, San Diego, CA, cat. ant-pm-2), 10% defined fetal bovine serum, heat inactivated (HyClone Laboratories Inc., Logan, UT, cat. SH30070.03HI), 50% L-WRN conditioned media (ATCC, cat. CRL-3276), 1.25 mM N-Acetyl-L-cysteine (Sigma-Aldrich, cat. A9165), 10 mM nicotinamide (Sigma-Aldrich, cat. N0636), 1X B-27 supplement (Thermo Fisher Scientific, cat. 17504044), 1X N-2 supplement (Thermo Fisher Scientific, cat. […]
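Note: spheroids exposed to compounds for 7 days before viability readout.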
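Throughout, for viability, T/C: luminescence signal used as surrogate for viable cell content; 100% = DMSO vehicle control viability.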

COc1ccc([C@@H](O)c2cc(-c3ncnc4cc(N5CCOCC5)ccc34)c(F)cc2Cl)nn1
viability, T/C (compound 0.0316 µM): 70.5% and 97.3% and 103% | viability, T/C (compound 0.1 µM): 85% and 91.1% and 92.7% | viability, T/C (compound 0.316 µM): 86.9% and 84.3% and 87% | viability, T/C (compound 1 µM): 66.4% and 79.4% and 67.4% | viability, T/C (compound 3.16 µM): 56.9% and 52.8% and 57% | viability, T/C (compound 10 µM): 42.3% and 49.3% and 41.6% | IC50 (curve of compound): 5.01 µM and 7.26 µM and 5.06 µM

CCCS(=O)(=O)Nc1ccc(F)c(C(=O)c2c[nH]c3ncc(-c4ccc(Cl)cc4)cc23)c1F
viability, T/C (compound 0.0316 µM): 113% and 104% and 102% | viability, T/C (compound 0.1 µM): 96.8% and 107% and 99.6% | viability, T/C (compound 0.316 µM): 109% and 103% and 107% | viability, T/C (compound 1 µM): 95.2% and 107% and 104% | viability, T/C (compound 3.16 µM): 109% and 98.7% and 92.9% | viability, T/C (compound 10 µM): 76.7% and 72.3% and 60.6% | IC50 (curve of compound): > 10 µM

COc1cc2cc(C(=O)CCC(=O)O)sc2cc1OC
viability, T/C (compound 0.0316 µM): 112% and 99.5% and 94.5% | viability, T/C (compound 0.1 µM): 107% and 103% and 89.5% | viability, T/C (compound 0.316 µM): 96.3% and 97.8% and 104% | viability, T/C (compound 1 µM): 101% and 96.7% and 102% | viability, T/C (compound 3.16 µM): 98.9% and 105% (2×) | viability, T/C (compound 10 µM): 99.8% and 101% and 109% | IC50 (curve of compound): > 10 µM

C=CC(=O)N1CCN(c2nc(=O)n(-c3c(C)ccnc3C(C)C)c3nc(-c4c(O)cccc4F)c(F)cc23)C(C)C1 (stereo not given) + Nc1ccc(C#CCN(C(=O)Cc2ncc(C(F)(F)F)cc2C(F)(F)F)c2ccc(F)cc2)nn1
IC50 (curve of first compound, second compound 0.0316 µM): > 10 µM | IC50 (curve of first compound, second compound 0.1 µM): > 10 µM | IC50 (curve of first compound, second compound 0.316 µM): > 10 µM | IC50 (curve of first compound, second compound 1 µM): > 10 µM | IC50 (curve of first compound, second compound 3.16 µM): > 10 µM | IC50 (curve of first compound, second compound 10 µM): > 10 µM | viability, T/C (second compound 0.0316 µM, first compound 0.0316 µM): 112% | viability, T/C (second compound 0.0316 µM, first compound 0.1 µM): 105% | viability, T/C (second compound 0.0316 µM, first compound 0.316 µM): 106% | viability, T/C (second compound 0.0316 µM, first compound 1 µM): 120% | viability, T/C (second compound 0.0316 µM, first compound 3.16 µM): 132% | viability, T/C (second compound 0.0316 µM, first compound 10 µM): 134% | viability, T/C (second compound 0.1 µM, first compound 0.0316 µM): 111% | viability, T/C (second compound 0.1 µM, first compound 0.1 µM): 110% | viability, T/C (second compound 0.1 µM, first compound 0.316 µM): 117% | viability, T/C (second compound 0.1 µM, first compound 1 µM): 124% | viability, T/C (second compound 0.1 µM, first compound 3.16 µM): 119% | viability, T/C (second compound 0.1 µM, first compound 10 µM): 128% | viability, T/C (second compound 0.316 µM, first compound 0.0316 µM): 116% | viability, T/C (second compound 0.316 µM, first compound 0.1 µM): 117% | viability, T/C (second compound 0.316 µM, first compound 0.316 µM): 103% | viability, T/C (second compound 0.316 µM, first compound 1 µM): 126% | viability, T/C (second compound 0.316 µM, first compound 3.16 µM): 135% | viability, T/C (second compound 0.316 µM, first compound 10 µM): 123% | viability, T/C (second compound 1 µM, first compound 0.0316 µM): 107% | viability, T/C (second compound 1 µM, first compound 0.1 µM): 110% | viability, T/C (second compound 1 µM, first compound 0.316 µM): 107% | viability, T/C (second compound 1 µM, first compound 1 µM): 129% | viability, T/C (second compound 1 µM, first compound 3.16 µM): 136% | viability, T/C (second compound 1 µM, first compound 10 µM): 126% | viability, T/C (second compound 3.16 µM, first compound 0.0316 µM): 112% | viability, T/C (second compound 3.16 µM, first compound 0.1 µM): 116% | viability, T/C (second compound 3.16 µM, first compound 0.316 µM): 113% | viability, T/C (second compound 3.16 µM, first compound 1 µM): 131% | viability, T/C (second compound 3.16 µM, first compound 3.16 µM): 135% | viability, T/C (second compound 3.16 µM, first compound 10 µM): 139% | viability, T/C (second compound 10 µM, first compound 0.0316 µM): 126% | viability, T/C (second compound 10 µM, first compound 0.1 µM): 113% | viability, T/C (second compound 10 µM, first compound 0.316 µM): 119% | viability, T/C (second compound 10 µM, first compound 1 µM): 132% | viability, T/C (second compound 10 µM, first compound 3.16 µM): 134% | viability, T/C (second compound 10 µM, first compound 10 µM): 142%

CCc1c2c(nc3ccc(O)cc13)-c1cc3c(c(=O)n1C2)COC(=O)[C@]3(O)CC
viability, T/C (compound 0.00316 µM): 94.8% and 105% and 94% | viability, T/C (compound 0.01 µM): 77.7% and 88.3% and 80.5% | viability, T/C (compound 0.0316 µM): 50.6% and 60% and 54.1% | viability, T/C (compound 0.1 µM): 49.2% and 52.5% and 41.1% | viability, T/C (compound 0.316 µM): 37.8% and 45.3% and 34.1% | viability, T/C (compound 1 µM): 30.3% and 37.3% and 29.6% | IC50 (curve of compound): 0.0623 µM and 0.0993 µM and 0.0482 µM

Reference: PubChem BioAssay AID1963834 (Molecular Pharmacology Branch, DTP, NCI, 2024)
